In brackets after ≈: the same amount, converted by molar mass. Some results are limits rather than exact numbers.

In one data set the test system is HIV-1IIIB. Kind of data set: microbe, parasite or virus in culture. The conditions noted are these: Human immunodeficiency virus 1, MT4, read-out: EC50 HIV-1IIIB. The class given is cell-based, human immunodeficiency virus type-1.
The nature of data set [1]: in vitro. The conditions noted are these: human.
The subject of another data set is YFV. Kind of data set: microbe, parasite or virus in culture. The class given is cell-based. The conditions noted are these: Yellow fever virus, BHK, read-out: EC50 YFV.
The next data set concerns BVDV. Kind of data set: microbe, parasite or virus in culture. The class given is cell-based, bovine viral diarrhoea virus. The note with it: Bovine viral diarrhea virus isolates and strains, MDBK, in Bos taurus, read-out: EC50 BVDV.
Data set [2] can be described thus: in vitro. The conditions noted are these: Syrian hamster (Mesocricetus auratus).
Data set [3] is described as follows: in vitro. The conditions noted are these: cattle (Bos taurus).
Another data set deals with Sb-1. Nature of the data set: microbe, parasite or virus in culture. The class given is cell-based, human enterovirus C (polio virus type-1). The conditions noted are these: Enterovirus C, Vero 76, read-out: EC50 Sb-1.
In another data set the test system is CV-B4. Kind of data set: Plaque reduction in Vero-76 monolayers, CV-B4. The conditions noted are these: Enterovirus B, CVB4, reference compound. The class given is cell-based, human enterovirus B (coxsackie virus B4).
A short description of data set [4]: in vitro. The conditions noted are these: African green monkey (Cercopithecus aethiops).
The next data set has as its system RSV. Nature of the data set: Plaque reduction in Vero-76 monolayers, RSV. The class given is cell-based. The conditions noted are these: human respiratory syncytial virus, reference compound.
For the next data set, the system named is HSV-1. Nature of the data set: Plaque reduction in Vero-76 monolayers, HSV-1. The conditions noted are these: Human alphaherpesvirus 1, reference compound. The class given is cell-based, human herpes virus 1.
In the next data set the test system is Reo-1. Nature of the data set: microbe, parasite or virus in culture. The class given is cell-based, reovirus type-1. The conditions noted are these: Reovirus sp., BHK, read-out: EC50 Reo-1.
A further data set relates to S. aureus. The note with it: β-caryophyllene from Aquilaria crassna essential oil; cited from earlier work.

On to `O=C1Nc2ccc(Cl)cc2[C@@](C#CC2CC2)(C(F)(F)F)O1` [RC1, Efavirenz], for which the EC50 – broadly, the concentration needed to bring the measured effect to its halfway point – in the data set on HIV-1IIIB is 3 ± 0.3 nM. In the data set “in vitro [1]”, this compound registered a CC50 of 40000 nM.

Consider `C[C@@]1(O)[C@H](O)[C@@H](CO)O[C@H]1n1cnc2c(=O)[nH]c(N)nc21` [RC2, 2′-C-methylguanosine], for which the EC50 with YFV came out at 1400 ± 200 nM; in the data set on BVDV, 1700 ± 300 nM. Moreover, the CC50 in the data set “in vitro [2]” was 80000 nM; in “in vitro [3]”, more than 100000 nM.

`Cc1cc(CCCOc2c(C)cc(-c3noc(C(F)(F)F)n3)cc2C)on1` [RC3, Pleconaril]: the EC50 is 2000 nM in the data set with Sb-1 and 2000 ± 500 nM in the data set on CV-B4. The compound also gave a CC50 in “in vitro [4]” of more than 100000 nM.

Compound `O=c1cnn([C@@H]2O[C@H](CO)[C@@H](O)[C@H]2O)c(=O)[nH]1` [RC4, 6-aza-uridine] yielded an EC50 with RSV of 2000 ± 200 nM. In the data set “in vitro [4]”, the CC50 is not below 14000 nM.

Consider `Nc1nc2c(ncn2COCCO)c(=O)[nH]1` [RC5, Acycloguanosine], for which the EC50 in the data set with HSV-1 came to 3000 ± 100 nM. For the same compound, the CC50 in “in vitro [4]” was more than 100000 nM.

`COc1c(C)c2c(c(O)c1C/C=C(\C)CCC(=O)O)C(=O)OC2` [RC6, Mycophenolic acid] returned a CC50 in the data set “in vitro [4]” of more than 100000 nM.

As for `C[C@@]1(O)[C@H](O)[C@@H](CO)O[C@H]1n1ccc(N)nc1=O` [RC7, 2′-C-methylcytidine], the EC50 in the data set with Reo-1 came to 17000 nM. For the same compound, in the data set “in vitro [2]”, the CC50 was more than 100000 nM.

On to `C=C1CC/C=C(\C)CC[C@@H]2[C@@H]1CC2(C)C` [β-caryophyllene], for which the MIC (in general, the lowest concentration found to suppress growth) with S. aureus was 3 ± 0.4 µM (≈ 0.613 µg/mL).

The values above are taken from paper PMC7235712, “Biological Activities of Essential Oils from Leaves of Paramignya trimera (Oliv.) Guillaum and Limnocitrus littoralis (Miq.) Swingle” (Antibiotics, 2020).
